Test results published in US10478497B2, “Combinations of inecalcitol with an anti-CD38 agent and their uses for treating cancer” (HYBRIGENICS SA., priority 2016, dated 2019).

Assays:
Format in all cases: cell-based, human
[1] = system: HL-60 acute promyelocytic leukemia cell line; experiment: CD38 expression by flow cytometry on HL-60 cells
Description: (§1) HL-60 acute promyelocytic leukemia cell line was purchased from ECACC (cat. 98070106), U-937 hystiocytic lymphoma cell line and MM.1S multiple myeloma cell line were purchased from ATCC (cat. CRL-2974 and cat CRL-1593,2, respectively), L-363 multiple myeloma cell line, L-428 classical Hodgkin lymphoma cell line and RS4,11 B-acute lymphoblastic leukemia cell lines were purchased from DSMZ (plasma cell leukemia, cat. ACC 49, cat. ACC 197 and cat. ACC 508, respectively). All cells were maintained in RPMI Medium 1640—GlutaMAX™ (Gibco 61870) except the RS4,11 cells in alpha-MEM Medium (Gibco 12571-063), supplemented with 10% heat inactivated charcoal stripped fetal bovine serum. All culture media were supplemented with 100 units/ml penicillin and 0.1 mg/ml streptomycin, and cell lines were cultured at 37° C. in a humidified atmosphere containing 5% CO2.
(§2) Cells were treated for 72 h with various concentrations of inecalcitol (Hybrigenics, Paris, France) before labelling with fluorescent anti-human CD38 FITC (eBioscience, Vienna, Austria, cat. 11-0389-41) or the matched isotype control: mouse IgG1 K FITC (eBioscience, Vienna Austria, cat. 11-4714-41) for 1 h at 4° C. in native buffer (PBS, 2% BSA, 0.1% sodium azide). After cell wash, fluorescence was measured on an ACEA NovoCyte Flow Cytometer.

[2] = system: L-363 multiple myeloma cell line; experiment: CD38 expression by flow cytometry on L-363 cells
Description: as §1, §2

[3] = system: MM.1S multiple myeloma cell line; experiment: CD38 expression by flow cytometry on MM.1S cells
Description: as §1, §2

[4] = system: U-937 hystiocytic lymphoma cell line; experiment: CD38 expression by flow cytometry on U-937 cells
Description: as §1, §2

[5] = system: RS4,11 B-acute lymphoblastic leukemia cell line; experiment: CD38 expression by flow cytometry on RS4,11 cells
Description: as §1, §2

[6] = system: L-428 classical Hodgkin lymphoma cell line; experiment: CD38 expression by flow cytometry on L-428 cells
Description: as §1, §2

C[C@H](CC#CC(C)(C)O)[C@H]1CC[C@@H]2/C(=C/C=C3C[C@@H](O)C[C@H](O)C3)CCC[C@@]21C [inecalcitol, 14epi-, 19nor-, 23yne-, 1,25dihydroxy-cholecalciferol]
effect on CD38 expression (fold increase of CD38 mean fluorescent signal), in words ([1]; FIG. 4, HL-60 cell line, dose dependent): enhances CD38 expression
EC50 ([1]; HL-60 cells, 72 h treatment, anti-human CD38 FITC flow cytometry, read-out: concentration which triggered 50% of the maximum CD38 induction (EC50)): 0.43 nM
effect on CD38 expression (fold increase of CD38 mean fluorescent signal), in words ([2]; FIG. 2, L-363 cell line, dose dependent): enhances CD38 expression
maximal increase in fluorescent labelling (CD38) ([2]; L-363 cells, 72 h treatment): 5 fold
EC50 ([2]; L-363 cells, 72 h treatment, anti-human CD38 FITC flow cytometry, read-out: concentration which triggered 50% of the maximum CD38 induction (EC50)): 4 nM
effect on CD38 expression (fold increase of CD38 mean fluorescent signal), in words ([3]; FIG. 1, MM.1S cell line, dose dependent): enhances CD38 expression
EC50 ([3]; MM1.S, MM.1s cells, 72 h treatment, anti-human CD38 FITC flow cytometry, read-out: concentration which triggered 50% of the maximum CD38 induction (EC50)): 0.49 nM
maximal increase in fluorescent labelling (CD38) ([3]; MM.1s cells, 72 h treatment): 5 fold
effect on CD38 expression (fold increase of CD38 mean fluorescent signal), in words ([4]; FIG. 3, U-937 cell line, dose dependent): enhances CD38 expression
maximal increase in fluorescent labelling (CD38) ([4]; U-937 cells, 72 h treatment): 5 fold
EC50 ([4]; U-937 cells, 72 h treatment, anti-human CD38 FITC flow cytometry, read-out: concentration which triggered 50% of the maximum CD38 induction (EC50)): 0.57 nM
effect on CD38 expression (fold increase of CD38 mean fluorescent signal), in words ([5]; FIG. 6, RS4.11 cell line, dose dependent): enhances CD38 expression
increase in fluorescent labelling (CD38) ([5]; RS4,11 cells, 72 h treatment): 2.5 fold
EC50 ([5]; RS4,11 cells, 72 h treatment, anti-human CD38 FITC flow cytometry, read-out: concentration which triggered 50% of the maximum CD38 induction (EC50)): 0.55 nM
effect on CD38 expression (fold increase of CD38 mean fluorescent signal), in words ([6]; FIG. 5, classical Hodgkin lymphoma cell line, dose dependent): enhances CD38 expression
increase in fluorescent labelling (CD38) ([6]; L-428 cells, 72 h treatment): 2 fold
EC50 ([6]; L-428 cells, 72 h treatment, anti-human CD38 FITC flow cytometry, read-out: concentration which triggered 50% of the maximum CD38 induction (EC50)): 0.23 nM
